The values below come from US11384075B2, “Quinolinone compounds” (Janssen Pharmaceutica NV, priority 2017, dated 2022).

In assay [1] the target is T1, human FGFR3 wild type enzyme (cytoplasmic domain) (Homo sapiens, UniProt P22607).
T1 construct: human FGFR3 wild type enzyme (cytoplasmic domain, from Carna Biosciences); purchased Carna Biosciences
In words: FGFR3 wild type mobility shift assay (enzymatic assay). It is filed as biochemical. To be noted: 75 μM ATP, 50 minutes at 30° C., Caliper EZ reader II. The gist of the method:
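Cytoplasmic domain of human wild-type FGFR3 (0.04 ng/μL) with 75 μM ATP and 1 μM FL-peptide 30, pH 7.4 HEPES/MgCl2 buffer, 1% DMSO, 50 min at 30 °C, EDTA-stopped. Substrate-product conversion read by mobility shift. IC50, pIC50 and Hill slope from 10-point 4-fold dilutions starting at 10 μM.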

For assay [2], the target named is T2, human FGFR3 V555M enzyme (cytoplasmic domain carrying V555M mutation) (Homo sapiens, UniProt P22607, V555M).
T2 construct: human FGFR3 V555M enzyme (cytoplasmic domain carrying V555M mutation, from Carna Biosciences); purchased Carna Biosciences
The experiment in a line: FGFR3 V555M mobility shift assay (enzymatic assay). The format is biochemical. The conditions noted are these: 30 μM ATP, 45 minutes at 30° C., Caliper EZ reader II. The gist of the method: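 Cytoplasmic-domain FGFR3 V555M (0.04 ng/μL) with 30 μM ATP and 1 μM FL-peptide 30 in HEPES pH 7.4/MgCl2/Brij35/DTT, 1% DMSO, 45 min at 30 °C, EDTA-stopped. Mobility-shift read of substrate-product conversion; 10-point 4× dilution from 10 μM fitted for IC50/pIC50.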

The test system of assay [3] is NIH/3T3 cells transfected with the same control vector. The experiment in a line: NIH/3T3 mock cell proliferation assay (counter assay, general toxicity). It is filed as cell-based. To be noted: Mus musculus, NIH3T3, 72 h, 72-hr incubation, CellTiter Glo, starting with 30 μM; counter assay for general toxicity; read-out: NIH/3T3 MOCK CTG (IC50). The gist of the method:
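Control-vector NIH/3T3 cells, 30,000/well in DMEM with 10% FBS, exposed 72 h at 37 °C to compound (9 points, 3-fold from 30 μM, 0.3% DMSO). CellTiter-Glo luminescence normalized to survival %; IC50, pIC50 and Hill slope from concentration-response fit.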
On the technique in general: Cellular ATP, detected with luciferase, serves as a proxy for viable cell number.

Assay [4] has as its target T3, NIH/3T3 cells overexpressing FGFR3 V555M-TACC3 fusion protein (Homo sapiens, UniProt P22607, V555M, cells depend on it).
T3 construct: NIH/3T3 FGFR3 V555M-TACC3 CTG (IC50); other: 72-hr incubation, CellTiter Glo, starting with 10 μM; fused on or other part: Q9Y6A5 (Transforming acidic coiled-coil-containing protein 3)
In words: NIH/3T3 FGFR3 V555M-TACC3 cell proliferation assay. The format is cell-based. The conditions noted are these: 72-hr incubation, CellTiter Glo, starting with 10 μM; read-out: NIH/3T3 FGFR3 V555M-TACC3 CTG (IC50). The gist of the method:
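NIH/3T3 cells overexpressing FGFR3 V555M-TACC3 fusion, 30,000/well in DMEM/10% FBS, treated for 72 h at 37 °C with 9 doses (4× dilutions from 10 μM top, 0.1% DMSO). CellTiter-Glo luminescence normalised to % survival; IC50, pIC50 and Hill slope from concentration-response fits.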

For assay [5], the system named is NIH/3T3 cells overexpressing FGFR3 V555M-TACC3 fusion protein. The experiment in a line: NIH/3T3 FGFR3 V555M-TACC3 cellular phospho-ERK assay (in vitro PD assay). It is filed as cell-based. To be noted: Mus musculus, NIH3T3; 1-hr incubation, AlphaLISA SureFire Ultra p-ERK1/2 (Thr202/Tyr204); read-out: NIH/3T3 FGFR3 V555M-TACC3 pERK (IC50). On the procedure: NIH/3T3 FGFR3 V555M-TACC3 Cellular Phospho-ERK Assay (In Vitro PD Assay)
50 μL of cell suspension (NIH/3T3 cells overexpressing FGFR3 V555M-TACC3 fusion protein) (total 10,000 cells per well in growth medium (DMEM containing 1% Glutamax, 10% FBS and 1% Pen/Strep)) was seeded in a 384-well plate. After overnight incubation at 37° C. and 5% CO2, 5.5 μL of growth medium containing 10× testing compound was added into cell cultures (10 dose points with 4× serial dilution, starting with 10 μM, 0.1% DMSO final). After 1-hr incubation at 37° C. and 5% CO2, the medium was depleted and AlphaLISA SureFire Ultra p-ERK1/2 (Thr202/Tyr204) Assay Kit (from PerkinElmer) was applied for phospho-ERK level detection according to the kit instructions. The RFUs (relative fluorescence units were measured on EnVision microplate reader (ex. 680 nm, em. 615 nm) and concentration-response curve was plotted using Prism to calculate IC50 (M), pIC50 (−log IC50) and HillSlope value.

T2 sequence (P22607 397-806 V555M limits assumed): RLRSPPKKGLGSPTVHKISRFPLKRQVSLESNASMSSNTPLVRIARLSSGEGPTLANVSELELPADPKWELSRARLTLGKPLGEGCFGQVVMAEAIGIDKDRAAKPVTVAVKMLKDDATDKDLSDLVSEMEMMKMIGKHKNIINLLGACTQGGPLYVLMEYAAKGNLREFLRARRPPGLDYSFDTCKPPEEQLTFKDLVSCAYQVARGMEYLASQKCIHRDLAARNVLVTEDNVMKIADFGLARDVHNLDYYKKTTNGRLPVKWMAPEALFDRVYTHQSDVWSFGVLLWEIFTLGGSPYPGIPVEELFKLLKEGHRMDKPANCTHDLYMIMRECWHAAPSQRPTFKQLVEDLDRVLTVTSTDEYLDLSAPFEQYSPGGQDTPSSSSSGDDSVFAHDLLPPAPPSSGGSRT
T1 sequence (P22607 397-806 limits assumed): as the sequence (P22607 397-806 V555M limits assumed) above, with M159V counted along it
T3 sequence (P22607 whole entry V555M, the tested form may be a part): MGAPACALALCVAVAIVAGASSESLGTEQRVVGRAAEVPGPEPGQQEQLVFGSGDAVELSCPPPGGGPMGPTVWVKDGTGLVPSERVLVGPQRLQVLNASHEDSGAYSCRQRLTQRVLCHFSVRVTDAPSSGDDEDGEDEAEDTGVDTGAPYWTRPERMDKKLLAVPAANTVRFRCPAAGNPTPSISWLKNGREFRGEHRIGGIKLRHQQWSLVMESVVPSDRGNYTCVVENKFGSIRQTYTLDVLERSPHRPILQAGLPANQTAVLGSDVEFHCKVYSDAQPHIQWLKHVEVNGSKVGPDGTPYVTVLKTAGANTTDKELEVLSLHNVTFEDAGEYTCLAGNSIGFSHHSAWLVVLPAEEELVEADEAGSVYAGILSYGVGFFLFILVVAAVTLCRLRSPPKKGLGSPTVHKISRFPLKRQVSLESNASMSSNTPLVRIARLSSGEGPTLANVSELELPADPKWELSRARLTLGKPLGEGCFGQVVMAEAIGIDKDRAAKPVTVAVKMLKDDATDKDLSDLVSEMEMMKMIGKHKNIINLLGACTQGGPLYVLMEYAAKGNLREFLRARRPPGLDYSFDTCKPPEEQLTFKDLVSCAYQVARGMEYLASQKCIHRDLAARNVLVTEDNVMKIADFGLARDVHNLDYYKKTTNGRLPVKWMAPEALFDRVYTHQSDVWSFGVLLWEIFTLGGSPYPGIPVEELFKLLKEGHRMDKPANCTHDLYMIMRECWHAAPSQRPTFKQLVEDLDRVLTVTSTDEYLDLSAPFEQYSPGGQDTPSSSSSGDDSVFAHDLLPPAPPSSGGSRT

Take `C[C@H](Nc1c(-c2nc3ccc(N4CCOCC4)cc3[nH]2)c(=O)[nH]c2ccccc12)c1ncccn1` [Compound 2, (S)-3-(6-morpholino-1H-benzo[d]imidazol-2-yl)-4-((1-(pyrimidin-2-yl)ethyl)amino)-quinolin-2(1H)-one]: the IC50 was found to be 0.337 nM in assay [1], 0.213 nM in assay [2], 15300 nM in assay [3] and 0.946 nM in assay [5]. Further, in assay [4], the GI50 came to 4.89 nM.

Turning to `C[C@@H]1CN(c2ccc3nc(-c4c(N[C@@H](C)c5ccccn5)c5ccccc5[nH]c4=O)[nH]c3c2)C[C@H](C)O1` [Compound 4, 3-(6-((2S,6R)-2,6-dimethylmorpholino)-1H-benzo[d]imidazol-2-yl)-4-(((S)-1-(pyridin-2-yl)ethyl)amino)quinolin-2(1H)-one], the IC50 in assay [1] is 2.59 nM; in assay [2] it was 1.34 nM; in assay [3], 7690 nM; in assay [5], 1.09 nM. Also, the GI50 in assay [4] came out at 42.7 nM.

In the case of `C[C@@H]1CN(c2ccc3nc(-c4c(N[C@@H](C)c5ccccn5)c5ccccc5[nH]c4=O)[nH]c3c2)C[C@@H](C)O1` [Compound 21, 3-(6-((2R,6R)-2,6-dimethylmorpholino)-1H-benzo[d]imidazol-2-yl)-4-(((S)-1-(pyridin-2-yl)ethyl)amino)quinolin-2(1H)-one], the IC50 in assay [1] was determined as 5.04 nM; in assay [2] it was 2.75 nM; in assay [3], 13600 nM; in assay [5] it was 2.35 nM. Further, the GI50 in assay [4] worked out at 48.8 nM.

For `C[C@H](Nc1c(-c2nc3ccc(N4CCOCC4)c(F)c3[nH]2)c(=O)[nH]c2ccccc12)c1ccccn1` [Compound 24, (S)-3-(7-fluoro-6-morpholino-1H-benzo[d]imidazol-2-yl)-4-((1-(pyridin-2-yl)ethyl)-amino)quinolin-2(1H)-one], the IC50 came to 2.18 nM in assay [1], 0.929 nM in assay [2], 13100 nM in assay [3] and 0.959 nM in assay [5]. Further, the GI50 in assay [4] stood at 39.4 nM.
